Assays:
dog IgE = test: Intravenous administration test using rats: IgG antibody against dog IgE (ELISA); assay type: in vivo; conditions: i.v.
Protocol: The dog IgE protein (Bethyl Laboratories, Inc.; P115), the mouse IgE protein (BD Biosciences, San Jose, Calif., USA), and the human IgE protein (Athens Research And Technology, Inc.; 16-16-090705-ML) were each prepared at 1 μg/mL, 500 ng/mL, 250 ng/mL, 125 ng/mL, 62.5 ng/mL, 31.2 ng/mL, 15.6 ng/mL, 7.8 ng/mL, 3.9 ng/mL, 1.95 ng/mL, and 0.97 ng/mL in an immobilization buffer (0.05 M carbonate buffer, pH 9.6), then added at a concentration of 100 μL/well to an ELISA plate, and left overnight at 4° C. The immobilization plate was washed once with PBS-T (0.05%). A blocking solution (4× Block Ace, Snow Brand Milk Products Co., Ltd.; UK-B80) was added thereto at a concentration of 200 μL/well. The plate was blocked by incubation at 37° C. for 1.5 hours. The serum was diluted 2000-fold with a diluent (PBS-T:Block Ace=9:1) and used. The serum of an unimmunized rat was similarly diluted and used as a negative control. […] Then, the measurement was performed using a plate reader (Bio-Rad Laboratories, Inc.; model 680) (dual: measurement: 450 nm, control: 570 nm).
This peptide was used in the immunization of rats without the use of an adjuvant, and antibody response to dog IgE was evaluated. […]
Blood was collected every 2 weeks from the administer start date up to 8 weeks after the third immunization. Serum was collected, and an IgG antibody against dog IgE was evaluated by ELISA (FIG. 13). […]

Der f 2-specific IgE = test: Prevention experiment in rats: Der f 2-specific IgE (ELISA); assay type: in vivo; conditions: rat, 50 μg three times, then Der f 2 + alum
Protocol: Der f 2 was prepared at 1 μg/mL in an immobilization buffer (0.05 M carbonate buffer, pH 9.6), then added at a concentration of 100 μL/well to an ELISA plate, and left overnight at 4° C. The immobilization plate was washed once with PBS-T (0.05%). A blocking solution (4× Block Ace, Snow Brand Milk Products Co., Ltd.; UK-B80) was added thereto at a concentration of 200 μL/well. The plate was blocked by incubation at 37° C. for 1.5 hours. The serum was diluted 20-fold with a diluent (PBS-T:Block Ace=9:1) and used. The plate was reacted with the serum at 37° C. for 1.5 hours and washed three times with PBS-T (0.05%). An anti-rat IgE antibody (Rabbit anti-Rat IgE HRP; Invitrogen Corp., 61-9520) was diluted 1000-fold with a diluent and added thereto as a secondary antibody at a concentration of 100 μL/well. After reaction at 37° C. for 1.5 hours, the plate was washed three times with PBS-T (0.05%). […] Then, the measurement was performed using a plate reader (Bio-Rad Laboratories, Inc.; model 680) (dual: measurement: 450 nm, control: 570 nm). […]
Blood was collected every 2 weeks from the administer start date. […] Serum was collected, and an IgG antibody against dog IgE was evaluated by ELISA (FIG. 16). […]

With “KKTSVSASQWYTKHHNNATT (listed as Mus musculus) [M4-7-11]” the “anti-dog IgE IgG antibody titers in rat serum” value (dog IgE; all dose groups, final day (8 weeks after the third vaccination day)) was 3000 times, the “level of the IgG antibody against dog IgE” value (dog IgE; rat, 1 mg, 500 μg, 100 μg or 50 μg per animal three times, no adjuvant, all groups) was “a rise in the level of the IgG antibody against dog IgE was confirmed” and the “Der f 2-specific IgE production compared with the control group (saline)” value (Der f 2-specific IgE; intravenous) was “inhibition of IgE production was confirmed”. For the same sequence, the “Der f 2-specific IgE production compared with the control group (saline)” value (Der f 2-specific IgE; subcutaneous (group 2)) was “inhibition of IgE production was remarkably confirmed”.
